This note sets out measurements from paper PMC4117768, “Conjugation with polyamines enhances the antibacterial and anticancer activity of chloramphenicol” (Nucleic Acids Research, 2014).

Entries after “also recorded” stand apart in the source; their conditions may differ.

In data set [1] the test system is E. coli (A2058G) TA531 cells with pKK35 plasmid, mutated 23S rRNA. Nature of the data set: Growth inhibition of bacterial cell cultures, CAM-resistant mutant. The class given is cell-based. Conditions: for IC50: Escherichia coli, read-out: IC50 (inhibit the growth by half). From the text:
(§1) CAM free base [D-(-)threo-1-(p-nitrophenyl)-2-amino-1,3-propanediol], puromycin dihydrochloride, tRNA^Phe from E. coli, dimethyl sulfate (DMS), DMS stop solution and tRNA^Phe from E. coli were purchased from Sigma-Aldrich. Kethoxal and 1-cyclohexyl-3-(2-morpholinoethyl)-carbodiimide metho-p-toluene sulfate (CMCT) were from MP Biomedicals and Fluka Biochemicals, respectively. AMV reverse transcriptase was supplied by Roche, dNTPs by HT Biotechnology, and ddNTPs by Jena Bioscience. L-[2,3,4,5,6 -^3H]Phenylalanine was from Amersham Biosciences and [α-^32P]ATP from Izotop. Cellulose nitrate filters (type HA; 0.45 μm pore size) were from Millipore Corp. Details in experimental procedures of synthesis and physical and spectra data for the synthesized compounds will be published elsewhere. […] The mesothelioma cell line ZL34 and its immortalized counterpart cell line Met5A, were kindly provided by Prof. G. Stathopoulos (University of Patras).
(§2) S. aureus or E. coli cells (400 μl of a 0.700 OD560 preculture) containing wild-type or mutant ribosomes were added in 3.6 ml of LB (Luria Broth) medium and grown at 37°C in the presence or absence of CAM or PA–CAM conjugates until the optical density of the control culture (grown in the absence of drug) reached the value 0.700 at 560 nm. From the growth curves, the IC50 value for each strain was estimated as the concentration of the drug that is required to inhibit the growth by half.

Data set [2] relates to E. coli (A2503C) TA531 cells with pKK35 plasmid, mutated 23S rRNA. Described as above. The note with it: for IC50: Escherichia coli, read-out: IC50 (inhibit the growth by half). The class given is cell-based.
Excerpt: as §1, §2

Data set [3] relates to HS-Sultan (Burkitt's lymphoma) cells. Nature of the data set: Toxicity assay in leukemic cell line (cell counting, Annexin V flow cytometry). The class given is cell-based, human. The note with it: for induction of apoptosis (flow cytometry) / induction of necrosis (flow cytometry): 60 μM; for sensitivity of cells / inhibition of cell proliferation (cell counting): increasing concentrations. As for the experimental part: Human leukemic cell lines, HS-Sultan (Burkitt's lymphoma) (European Collection of Cell Cultures, Salisbury, UK), Jurkat (T-cell acute lymphoblastic leukemia) and U937 (histiocytic lymphoma) (American Type Culture Collection, Manassas, USA), were adjusted to 1 × 10^9 cells/l in RPMI-1640 medium containing 1% Penicillin/Streptomycin and 10% fetal bovine serum and grown in triplicate in the presence or absence of CAM or PA–CAM conjugates for 4 days at 37°C, under a humidified 5% CO2 atmosphere. The medium was changed after 2 days of exposure; CAM or PA-CAM addition was repeated after medium change to keep the appropriate drug concentration. Aliquots were collected daily and counted in a CELL-DYN 3700 Hematology Analyzer. For cell necrosis and apoptosis assays, samples (10^6 cells) were collected daily and determined using the Annexin V-PE Apoptosis Detection Kit I (BD Pharmingen) for flow cytometry ([29]), as described by the manufacturer. Flow cytometry data were analyzed using the FlowJo flow cytometry analysis software. Necrotic and apoptotic cells were expressed as a percentage of total cells.
Figure S2. Toxicity assays in leukemic cell lines. Human leukemic cell lines, HS-Sultan, Jurkat, and U937 were adjusted to 1×10^9 cells/l in RPMI-1640 medium containing 1% Penicillin/Streptomycin and 10% fetal bovine serum and grown in triplicate in the presence or absence of CAM or compound 4 at the indicated concentrations for 5 days at 37°C, under a humidified 5% CO2 atmosphere. Aliquots were collected daily and counted in a CELL-DYN 3700 Hematology Analyzer.
Figure S3. Toxicity assays in HS-Sultan cells. HS-Sultan cells were adjusted to 1×10^9 cells/l in RPMI-1640 medium containing 1% Penicillin/Streptomycin and 10% fetal bovine serum and grown in triplicate in the presence or absence of CAM or compound 4 at the indicated concentrations for 4 days at 37°C, under a humidified 5% CO2 atmosphere. For cell necrosis and apoptosis assays, samples (10^6 cells) were collected daily and determined using the Annexin V-PE Apoptosis Detection Kit I for flow cytometry. Non-viable and necrotic cells were expressed as a percentage of total cells.
(A flow cytometer gives signals particle by particle.)

Data set [4] relates to human peripheral blood cells. Nature of the data set: Toxicity assay in human peripheral blood cells (cell counting). The class given is cell-based. As for the experimental part:
Peripheral blood was collected in EDTA-coated tubes from five healthy volunteers (age range: 25–30 years). Cell concentration was adjusted to 1.8 × 10^9 cells/l using RPMI-1640 medium (GIBCO BRL) containing 1% Penicillin/Streptomycin. CAM or PA–CAM conjugates were added at various concentrations and cells were cultured in triplicate under a humidified 5% CO2 atmosphere for 5 days, at 37°C. In parallel, cells were cultured in the absence of CAM or PA–CAM conjugates (control cultures). Counting of cells was performed daily in a CELL-DYN 3700 Hematology Analyzer (Abbott, USA) and values were expressed as a percentage of cells measured in control cultures.
Figure S1. Toxicity assays in human peripheral blood cells. Peripheral blood was collected in EDTA-coated tubes from 5 healthy volunteers (age range: 25-30 years). Cell concentration was adjusted to 1.8×10^9 cells/l using RPMI-1640 medium (GIBCO BRL) containing 1% penicillin/streptomycin. CAM or compound 4 was added at final concentrations equal to 30 or 60 μM and cells were cultured in triplicate under a humidified 5% CO2 atmosphere for 5 days, at 37°C. Control cultures were carried out in the absence of CAM or compound 4. Cultures were counted daily in a CELL-DYN 3700 Hematology Analyzer and values are expressed as a percentage of cells measured in control cultures.

By IC50 is commonly meant the concentration that gives 50% inhibition. For the molecule `NCCCN(CCCCN(Cc1ccccc1)Cc1ccccc1)C(=O)CCC(=O)N[C@H](CO)[C@H](O)c1ccc([N+](=O)[O-])cc1` [Compound 4], the “IC50 superiority over CAM” value in data set [1] (E. coli A2058G mutant) is approximately 2 fold. The IC50 in data set [1] turned out to be 9.4 ± 1 µM. The “IC50 superiority over CAM” value in data set [2] (E. coli A2503C mutant) was approximately 2 fold. The IC50 in data set [2] is 9.4 ± 0.9 µM. In data set [3], the “induction of apoptosis (flow cytometry)” value is on record as “apoptosis to HS-Sultan cells”, the “induction of necrosis (flow cytometry)” value is reported as “induced necrosis” and the “sensitivity of cells / inhibition of cell proliferation (cell counting)” value is “sensitive; also recorded: more effective than CAM”. Besides, the “effects on other types of leukocytes” value in data set [4] (30 μM for 24 or 48 h) is “negligible”. In data set [4] (120 h culture period), the “effect on the viability of human monocytes and lymphocytes” value was “little or no effect”; the toxicity to neutrophils result was “moderate and transient toxicity”.

Regarding `O=C(N[C@H](CO)[C@H](O)c1ccc([N+](=O)[O-])cc1)C(Cl)Cl` [CAM, Chloramphenicol], the IC50 in data set [1] amounted to 15.5 ± 1.3 µM. Further, in data set [2], the IC50 amounted to 24.7 ± 2.3 µM. In data set [3], the “induction of apoptosis (flow cytometry)” value is given as “failed to induce apoptosis”, the “induction of necrosis (flow cytometry)” value is “induced necrosis” and the “sensitivity of cells / inhibition of cell proliferation (cell counting)” value is recorded as “sensitive”. In addition, in data set [4] (30 μM for 24 or 48 h), the “effects on other types of leukocytes” value is recorded as “negligible” and the “reduction in the viability of neutrophils” value came out at 20%.
